According to patent US7455654B2, “Method and apparatus for reducing the incidence of tobacco use” (Alza Corporation, priority 2003, dated 2008):
Like-named read-outs stand apart in the source and are kept apart here.

Tests used:
[1] = 2 cm^2 device coated with ca. 300 micrograms nicotine HCl, applied in humans with applicator
[2] = 0.2 wt. % Tween 20
Description: A 30 wt. % nicotine HCl solution is prepared in water. To that solution is added 0.1 wt. % hydroxyethyl cellulose and 0.2 wt. % of the surfactant Tween 20. The coating solution is then applied to the microprojections using the coating methods described in U.S. Publication No. 2002/0132054.
(§1) An aqueous solution consisting of 5 wt. % nicotine base, 5 wt. % hydroxypropyl methylcellulose (HPMC, Methocel E5 premium LV EP JP, Dow Chemical Company, Midland Mich.) and 0.2 wt. % Tween 20 is prepared. The coating solution is then applied to the microprojections using the coating methods described in U.S. Publication No. 2002/0132054.

[3] = 2 cm^2 device coated with ca. 400 micrograms nicotine base; essentially immediate delivery on application to the skin
Description: as §1

[4] = Description: An aqueous solution containing 40 wt. % nicotine hydrogen tartrate was prepared. Sufficient fluorescein was added to the solution to generate a 0.001 M concentration. This agent was used to assess the quality of the coating after drying.
A strip of titanium foil was prepared by washing the surface with acetone and drying. Five microliters of the coating solution (or formulation) was applied and dried for four hours at room temperature.

CN1CCCC1c1cccnc1.Cl (stereo not drawn) [nicotine HCl]
delivery of the nicotine contained on the projections [1]: more than 70%
coating distribution across the projections ([2]; 30 wt. % nicotine HCl in water, 0.1 wt. % hydroxyethyl cellulose): well distributed across the projections

CN1CCC[C@H]1c1cccnc1 [nicotine base]
amount of nicotine base delivered to the user [3]: 300 micrograms
coating distribution across the projections ([2]; aqueous 5 wt. % nicotine base, 5 wt. % HPMC): well distributed across the projections

CN1CCCC1c1cccnc1.O=C(O)C(O)C(O)C(=O)O (stereo not drawn) [nicotine hydrogen tartrate]
quality of the coating ([4]; aqueous 40 wt. % nicotine hydrogen tartrate with 0.001 M fluorescein, 5 microliters on titanium foil, dried four hours at room temperature, no wetting agent): very poor
quality of the coating ([4]; same coating solution with 0.1 wt. % hydroxyethyl cellulose added): noticeably improved
